Test system: HeLa cells
Assay type: cell-based, human
Conditions: MTT, concluding statement

Cc1ncc(-c2cc(F)c(O)c(F)c2)cc1-c1cc(F)c(O)c(F)c1 [compound 26]
toxicity to human cells: not overtly toxic

From paper PMC6746079, “Development of Pyridine-based Inhibitors for the Human Vaccinia-related Kinases 1 and 2” (ACS Medicinal Chemistry Letters, 2019)
